# Data as given in patent publication US20220184235A1, “NEAR-INFRARED FLUORESCENT PROBES FOR MOLECULAR IMAGING OF BONE REPAIR” (Taipeibio Co., Ltd., priority 2020, published 2022).
# Bridges are numbered along the chain shown (N, C = ends). Where no end group is shown, it is not given here.
# How the values were obtained:
# [1] = NIR fluorescence emission spectra of the probes; assay type: physicochemical; conditions: excitation of 777 nm
# Method: Triethylamine (65.3 μL, 0.467 mmol) and 3-mercaptopropionic acid (40.7 μL, 0.467 mmol) were added to a solution of IR-783 (250 mg, 0.33 mmol) in 6 mL of anhydrous dimethylformamide (“DMF”). The resulting green solution was stirred in the dark at room temperature. The conversion reaction of IR783 to CyTE777 was complete after 21 h, as monitored by high-performance liquid chromatography (“HPLC”). A green solid was isolated through precipitation with ether at 4° C. and was washed with 3 mL cold ether. The precipitate was dissolved in water and dried under vacuum.
# The augmented fluorescence intensity indicated completed conjugation.
# Pamidronate (“PAM”) was attached to the carboxylate surface of nanoAu to form nanoAu-Pam directly or using a zero-length crosslinking agent, i.e., 1-ethyl-3-[3-dimethyl-aminopropyl] carbodiimide hydrochloride (“EDC”). Briefly, equal volumes of nanoAu (40 mM), pamidronate (3 mM), and EDC (80 mM) were mixed at room temperature for 2 h. To concentrate the nanoAu-Pam, the reaction was loaded on a 30 kDa molecular sieve (Amicon) and centrifuged at 3000 rpm for 10 min. The solution was centrifuged twice and washed with phosphate-buffered saline (“PBS”) to remove any unbound reactants. […] The fluorescence intensity of excitation spectra was recorded using an Edinburgh FL 900 CDT Time-Resolved Fluorometer (Edinburgh Analytical Instruments, Livingston, UK).
# [2] = statement on the purchased dye; cited from earlier work
# [3] = tested on: osteoblastic-differentiated MSC culture; experiment: Calcein staining for calcium deposition in osteogenically induced MSC culture; assay type: cell-based; conditions: MSC culture after 21 days of osteogenic induction
# Method: For osteogenic induction, MSCs were cultured in 24-well plates in DMEM/LG medium supplemented with 10% FBS, 100 units/mL penicillin, 100 μg/mL streptomycin, 50 μg/ml L-ascorbate-2-phosphate, 10^−7 M dexamethasone and 10 mM β-glycero-phosphate at 37° C., 5% CO2. Cells were also stained with calcein using a standard protocol to confirm calcium deposition in the culture. A 10x calcein/PBS staining solution was added to each well without medium change. The cells were incubated at 37° C., 5% CO2 overnight, washed twice with PBS, fixed with formaldehyde, and observed by fluorescence microscopy.
# [4] = tested on: undifferentiated MSCs; experiment: Calcein staining of undifferentiated MSCs; assay type: cell-based
# Method: Cells were also stained with calcein using a standard protocol to confirm calcium deposition in the culture. A 10x calcein/PBS staining solution was added to each well without medium change. The cells were incubated at 37° C., 5% CO2 overnight, washed twice with PBS, fixed with formaldehyde, and observed by fluorescence microscopy.
# [5] = tested on: osteoblastic-induced MSCs (α5β1); experiment: Binding specificity of α5β1L-CyTE777 in osteoblastic-induced MSCs, confocal microscopy; assay type: cell-based; conditions: osteoblastic-induced MSC
# Method: (§1) To determine the binding specificity of α5β1L-CyTE777, undifferentiated MSCs or osteoblastic-induced MSCs were cultured in 24-well plates in DMEM/LG supplemented with 10% FBS. α5β1L-CyTE777 was applied to the cultures to detect binding to α5β1 . Cultures incubated with α5β1L-CyTE777 were washed with PBS twice and analyzed by confocal microscopy after staining nuclei with diamidinophenylindole (“DAPI”).
# [6] = tested on: undifferentiated MSCs; experiment: Binding specificity of α5β1L-CyTE777 in undifferentiated MSCs, confocal microscopy; assay type: cell-based; conditions: undifferentiated MSC
# Method: as §1
molecule,measurement,setting,value
CC1(C)C(=CC=C2CCCC(C=CC3=[N+](CCCCS(=O)(=O)[O-])c4ccccc4C3(C)C)=C2SCCC(=O)O)N(CCCCS(=O)(=O)[O-])c2ccccc21.[Na+] [CyTE777],NIR emission peak,[1],820 nm
CC1(C)C(=CC=C2CCCC(C=CC3=[N+](CCCCS(=O)(=O)[O-])c4ccccc4C3(C)C)=C2Cl)N(CCCCS(=O)(=O)[O-])c2ccccc21.[Na+] [IR783],cell toxicity,[2],minimal cell toxicity
O=C(O)CN(CC(=O)O)Cc1cc2c(cc1O)Oc1cc(O)c(CN(CC(=O)O)CC(=O)O)cc1C21OC(=O)c2ccccc21 [calcein],calcein staining (calcium deposition),[3],positive staining
same,calcein staining (calcium deposition),[4],No calcein staining
α5β1L-CyTE777: CyTE777 conjugated to the N-terminal glycine NH2 of disulfide-cyclised peptide GGCRRETAWAC (SEQ ID NO: 1) (CyTE777-GGCRRETAWAC; disulfide 3-11 (inferred)),NIR emission peak,[1],820 nm
same,fluorescent signal of cells incubated with probe,[5],strong NIR fluorescence at 820 nm
same,fluorescent signal of cells incubated with probe,[6],did not show any fluorescent signal
